From ChEMBL document CHEMBL3734679, “Discovery of Azaindole Ureas as a Novel Class of Bacterial Gyrase B Inhibitors” (J Med Chem, 2015)
Converted amounts (≈) assume the structure as drawn.

Legend:
Staphylococcus aureus [1] = test: Antibacterial activity against ciprofloxacin-resistant Staphylococcus aureus 1721 after 18 to 20 hrs by broth microdilution assay; assay type: functional
Staphylococcus aureus [2] = test: Antibacterial activity against methicillin-resistant Staphylococcus aureus 1118 after 18 to 20 hrs by broth microdilution assay; assay type: functional
Enterococcus faecium = test: Antibacterial activity against Enterococcus faecium after 18 to 20 hrs by broth microdilution assay; assay type: functional
Streptococcus pneumoniae = test: Antibacterial activity against Streptococcus pneumoniae after 18 to 20 hrs by broth microdilution assay; assay type: functional
DNA gyrase subunit B = DNA gyrase subunit B (Staphylococcus aureus, UniProt P0A0K8); test: Inhibition of Staphylococcus aureus DNA GyraseB ATPase activity using linear pBR322 DNA as substrate incubated for 30 mins by fluorescence polarization analysis
Staphylococcus aureus [3] = test: Antibacterial activity against methicillin-susceptible Staphylococcus aureus 42 after 18 to 20 hrs by broth microdilution assay; assay type: functional
Enterococcus faecalis = test: Antibacterial activity against Enterococcus faecalis after 18 to 20 hrs by broth microdilution assay; assay type: functional

Chain of DNA gyrase subunit B (P0A0K8 whole entry): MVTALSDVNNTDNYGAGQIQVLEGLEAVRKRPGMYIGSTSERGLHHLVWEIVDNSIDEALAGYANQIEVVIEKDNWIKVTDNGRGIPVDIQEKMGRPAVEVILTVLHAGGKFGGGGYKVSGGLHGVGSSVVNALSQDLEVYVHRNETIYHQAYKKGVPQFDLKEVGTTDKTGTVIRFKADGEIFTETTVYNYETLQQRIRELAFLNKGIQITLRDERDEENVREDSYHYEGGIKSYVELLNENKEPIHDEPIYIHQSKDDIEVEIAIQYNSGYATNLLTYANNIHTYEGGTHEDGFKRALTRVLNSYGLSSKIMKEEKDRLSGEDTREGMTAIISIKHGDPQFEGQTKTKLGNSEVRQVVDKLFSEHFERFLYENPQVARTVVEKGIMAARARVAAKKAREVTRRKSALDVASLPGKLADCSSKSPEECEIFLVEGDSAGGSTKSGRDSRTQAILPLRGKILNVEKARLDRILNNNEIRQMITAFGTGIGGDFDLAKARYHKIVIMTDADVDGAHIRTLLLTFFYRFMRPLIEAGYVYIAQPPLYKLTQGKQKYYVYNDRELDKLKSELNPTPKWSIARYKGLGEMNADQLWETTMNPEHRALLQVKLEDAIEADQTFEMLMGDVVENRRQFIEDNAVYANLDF

| SMILES | MIC (Staphylococcus aureus [1]) | MIC (Staphylococcus aureus [2]) | MIC (Enterococcus faecium) | MIC (Streptococcus pneumoniae) | IC50 (DNA gyrase subunit B) | MIC (Staphylococcus aureus [3]) | MIC (Enterococcus faecalis) |
| --- | --- | --- | --- | --- | --- | --- | --- |
| CCNC(=O)Nc1cn(-c2ncc(Cl)cn2)c2cc(-c3cccnc3)cnc12 | 4 µg/mL (≈ 10.2 µM) | 4 µg/mL (≈ 10.2 µM) | 2 µg/mL (≈ 5.08 µM) | 2 µg/mL (≈ 5.08 µM) | 92 nM | 2 µg/mL (≈ 5.08 µM) | 0.5 µg/mL (≈ 1.27 µM) |
| CCNC(=O)Nc1cn(-c2ncccc2C)c2cc(-c3cccnc3)cnc12 | > 32 µg/mL | > 32 µg/mL | > 32 µg/mL | > 32 µg/mL | 1900 nM | > 32 µg/mL | > 32 µg/mL |
| CCNC(=O)Nc1cn(C2CCN(C)C2=O)c2cc(-c3cccnc3)cnc12 (configuration not stated) | – | – | – | – | 5290 nM | – | – |
| CCNC(=O)Nc1cn(C2CCN(C)CC2)c2cc(-c3cccnc3)cnc12 | – | – | – | – | 6420 nM | – | – |
| C=CCn1cc(NC(=O)NCC)c2ncc(-c3cccnc3)cc21 | – | – | – | – | 430 nM | – | – |
| CCNC(=O)Nc1cn(CC(O)CO)c2cc(-c3cccnc3)cnc12 (configuration not stated) | – | – | – | – | 1220 nM | – | – |
| CCNC(=O)Nc1cn(C)c2cc(-c3cccnc3)cnc12 | – | – | – | – | 1800 nM | – | – |
| CCNC(=O)Nc1cn(-c2ncc(Cl)cn2)c2cc(-c3cccnc3F)cnc12 | > 32 µg/mL | > 32 µg/mL | > 32 µg/mL | > 32 µg/mL | 6060 nM | > 32 µg/mL | > 32 µg/mL |
| CCNC(=O)Nc1cn(-c2ncc(C)c(CCCC(=O)O)n2)c2cc(-c3cccnc3)cnc12 | 8 µg/mL (≈ 17.4 µM) | 8 µg/mL (≈ 17.4 µM) | 8 µg/mL (≈ 17.4 µM) | 0.5 µg/mL (≈ 1.09 µM) | 15 nM | 8 µg/mL (≈ 17.4 µM) | – |
| CCNC(=O)Nc1cn(-c2ncc(F)cn2)c2cc(-c3cccnc3)cnc12 | > 32 µg/mL | 32 µg/mL (≈ 84.8 µM) | 32 µg/mL (≈ 84.8 µM) | 32 µg/mL (≈ 84.8 µM) | 127 nM | 32 µg/mL (≈ 84.8 µM) | 32 µg/mL (≈ 84.8 µM) |
| CCNC(=O)Nc1cn(-c2ncc(Br)cn2)c2cc(-c3cccnc3)cnc12 | 2 µg/mL (≈ 4.56 µM) | 2 µg/mL (≈ 4.56 µM) | 2 µg/mL (≈ 4.56 µM) | 1 µg/mL (≈ 2.28 µM) | 128 nM | 1 µg/mL (≈ 2.28 µM) | 0.25 µg/mL (≈ 0.57 µM) |
| C=CC(=O)n1cc(NC(=O)NCC)c2ncc(-c3cccnc3)cc21 | – | – | – | – | 280 nM | – | – |
| CCNC(=O)Nc1cn(C2CCCCC2)c2cc(-c3cccnc3)cnc12 | – | – | – | – | 350 nM | – | – |
| CCNC(=O)Nc1cn(-c2ncc(Br)cn2)c2cc(-c3ccn(C)c(=O)c3)cnc12 | 1 µg/mL (≈ 2.14 µM) | 1 µg/mL (≈ 2.14 µM) | 1 µg/mL (≈ 2.14 µM) | 1 µg/mL (≈ 2.14 µM) | 94 nM | 1 µg/mL (≈ 2.14 µM) | – |
| CCNC(=O)Nc1cn(-c2ncc(C#N)cn2)c2cc(-c3cccnc3)cnc12 | > 32 µg/mL | > 32 µg/mL | > 32 µg/mL | > 32 µg/mL | 18 nM | > 32 µg/mL | > 32 µg/mL |
| CCNC(=O)Nc1cn(-c2ncccn2)c2cc(-n3cnc(C(=O)NC4CC4)c3)cnc12 | 4 µg/mL (≈ 9.27 µM) | 4 µg/mL (≈ 9.27 µM) | 8 µg/mL (≈ 18.5 µM) | 2 µg/mL (≈ 4.64 µM) | 10 nM | 4 µg/mL (≈ 9.27 µM) | – |
| CCNC(=O)Nc1nc(CO)c(-c2ccc[nH]2)s1 | – | – | – | 16 µg/mL (≈ 60.1 µM) | 2500 nM | 128 µg/mL (≈ 481 µM) | – |
| CCNC(=O)Nc1cn(-c2ncc(CC)cn2)c2cc(-c3ccn(C)c(=O)c3)cnc12 | 1 µg/mL (≈ 2.4 µM) | 1 µg/mL (≈ 2.4 µM) | 0.25 µg/mL (≈ 0.599 µM) | 0.25 µg/mL (≈ 0.599 µM) | 71 nM | 1 µg/mL (≈ 2.4 µM) | – |
| CCNC(=O)Nc1cn(CCOC)c2cc(-c3cccnc3)cnc12 | – | – | – | – | 2400 nM | – | – |
| CCNC(=O)Nc1cn(-c2ncccn2)c2cc(-c3ccn(C)c(=O)c3)cnc12 | 4 µg/mL (≈ 10.3 µM) | 2 µg/mL (≈ 5.14 µM) | 4 µg/mL (≈ 10.3 µM) | 2 µg/mL (≈ 5.14 µM) | 12 nM | 2 µg/mL (≈ 5.14 µM) | – |

| SMILES | MIC (Staphylococcus aureus [1]) | MIC (Staphylococcus aureus [2]) | MIC (Enterococcus faecium) | MIC (Streptococcus pneumoniae) | IC50 (DNA gyrase subunit B) | MIC (Staphylococcus aureus [3]) | MIC (Enterococcus faecalis) |
| --- | --- | --- | --- | --- | --- | --- | --- |
| CCNC(=O)Nc1cn(-c2nccc(C)n2)c2cc(-c3cccnc3)cnc12 | > 32 µg/mL | > 32 µg/mL | 2 µg/mL (≈ 5.36 µM) | 4 µg/mL (≈ 10.7 µM) | 140 nM | > 32 µg/mL | 1 µg/mL (≈ 2.68 µM) |
| CCNC(=O)Nc1cn(-c2ncccn2)c2cc(-c3cccnc3)cnc12 | 16 µg/mL (≈ 44.5 µM) | 8 µg/mL (≈ 22.3 µM) | 8 µg/mL (≈ 22.3 µM) | 4 µg/mL (≈ 11.1 µM) | < 79 nM | 8 µg/mL (≈ 22.3 µM) | 2 µg/mL (≈ 5.56 µM) |
| CCNC(=O)Nc1c[nH]c2cc(-c3cccnc3)cnc12 | > 32 µg/mL | > 32 µg/mL | > 32 µg/mL | > 32 µg/mL | 6500 nM | > 32 µg/mL | > 32 µg/mL |
| CCNC(=O)Nc1cn(-c2ncc(Cl)cn2)c2cc(-c3ccn(C)c(=O)c3)cnc12 | 2 µg/mL (≈ 4.72 µM) | 1 µg/mL (≈ 2.36 µM) | 2 µg/mL (≈ 4.72 µM) | 1 µg/mL (≈ 2.36 µM) | 262 nM | 1 µg/mL (≈ 2.36 µM) | – |
| CCNC(=O)Nc1cn(-c2ncc(CC)cn2)c2cc(-c3cccnc3)cnc12 | 16 µg/mL (≈ 41.3 µM) | 16 µg/mL (≈ 41.3 µM) | 16 µg/mL (≈ 41.3 µM) | 16 µg/mL (≈ 41.3 µM) | 46 nM | 16 µg/mL (≈ 41.3 µM) | 8 µg/mL (≈ 20.6 µM) |
| CCNC(=O)Nc1nc(/C=C/c2cccnc2)c(-c2ccc[nH]2)s1 | – | – | – | – | 5800 nM | – | – |
| CCNC(=O)Nc1cn(-c2ncc(C)cn2)c2cc(-c3ccn(C)c(=O)c3)cnc12 | > 32 µg/mL | > 32 µg/mL | > 32 µg/mL | 4 µg/mL (≈ 9.91 µM) | 13 nM | > 32 µg/mL | 0.5 µg/mL (≈ 1.24 µM) |
| CCNC(=O)Nc1cn(-c2ncc(C)cn2)c2cc(-c3cccnc3)cnc12 | 4 µg/mL (≈ 10.7 µM) | 4 µg/mL (≈ 10.7 µM) | 4 µg/mL (≈ 10.7 µM) | 4 µg/mL (≈ 10.7 µM) | 64 nM | 4 µg/mL (≈ 10.7 µM) | 1 µg/mL (≈ 2.68 µM) |
| CCNC(=O)Nc1cn(-c2ccccn2)c2cc(-c3cccnc3)cnc12 | – | 16 µg/mL (≈ 44.6 µM) | 8 µg/mL (≈ 22.3 µM) | 8 µg/mL (≈ 22.3 µM) | 140 nM | 16 µg/mL (≈ 44.6 µM) | 8 µg/mL (≈ 22.3 µM) |
| CCNC(=O)Nc1cn(-c2ncc(C(F)(F)F)cn2)c2cc(-c3cccnc3)cnc12 | > 32 µg/mL | > 32 µg/mL | > 32 µg/mL | > 32 µg/mL | > 100000 nM | > 32 µg/mL | > 32 µg/mL |
| CCNC(=O)Nc1cn(C(=O)c2ccccn2)c2cc(-c3cccnc3)cnc12 | – | – | – | – | 1130 nM | – | – |
| CCNC(=O)Nc1cn(-c2ncc(OC)cn2)c2cc(-c3cccnc3)cnc12 | 8 µg/mL (≈ 20.5 µM) | 8 µg/mL (≈ 20.5 µM) | 8 µg/mL (≈ 20.5 µM) | 4 µg/mL (≈ 10.3 µM) | 143 nM | 4 µg/mL (≈ 10.3 µM) | 1 µg/mL (≈ 2.57 µM) |
| CCNC(=O)Nc1cn(-c2ncc(C)c(CCC(=O)O)n2)c2cc(-c3cccnc3)cnc12 | > 32 µg/mL | > 32 µg/mL | > 32 µg/mL | 1 µg/mL (≈ 2.24 µM) | 48 nM | > 32 µg/mL | – |
| CCNC(=O)Nc1cn(-c2ncc(Br)cn2)c2cc(-c3ccn(CCO)c(=O)c3)cnc12 | 8 µg/mL (≈ 16.1 µM) | 8 µg/mL (≈ 16.1 µM) | 8 µg/mL (≈ 16.1 µM) | 8 µg/mL (≈ 16.1 µM) | 8 nM | 8 µg/mL (≈ 16.1 µM) | – |
| CCNC(=O)Nc1cn(Cc2ccccc2)c2cc(-c3cccnc3)cnc12 | – | – | – | – | 3200 nM | – | – |
| CCNC(=O)Nc1cn(-c2ncc(Cl)cn2)c2cc(-c3cnc(C#N)nc3)cnc12 | > 32 µg/mL | > 32 µg/mL | > 32 µg/mL | > 32 µg/mL | 25 nM | > 32 µg/mL | > 32 µg/mL |
| CCNC(=O)Nc1cn(-c2nccc(CCO)n2)c2cc(-c3cccnc3)cnc12 | 32 µg/mL (≈ 79.3 µM) | 32 µg/mL (≈ 79.3 µM) | 16 µg/mL (≈ 39.7 µM) | 8 µg/mL (≈ 19.8 µM) | 9 nM | 32 µg/mL (≈ 79.3 µM) | – |
| CCNC(=O)Nc1cn(C2C=CCCC2)c2cc(-c3cccnc3)cnc12 (configuration not stated) | – | – | – | – | 240 nM | – | – |
| CCNC(=O)Nc1cn(-c2nccc(CCCO)n2)c2cc(-c3cccnc3)cnc12 | 32 µg/mL (≈ 76.7 µM) | 32 µg/mL (≈ 76.7 µM) | 4 µg/mL (≈ 9.58 µM) | 4 µg/mL (≈ 9.58 µM) | 42 nM | 32 µg/mL (≈ 76.7 µM) | 0.5 µg/mL (≈ 1.2 µM) |
